Test systems include SN12C renal; UACC-257 melanoma; SW-620 colon; SK-MEL-28 melanoma; HCT-15 colon; MALME-3M melanoma; SK-MEL-2 melanoma; MOLT-4 leukemia; HOP-62 NSCLC; HCC-2998 colon; SK-MEL-5 melanoma; NCI-H522 lung; OVCAR-4 ovarian.
Assay in all cases: NCI-60 cell line screen, 48 h

Results on twelve compounds are retold here after PubChem BioAssay (NCI).

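How tested: cells in 96-well plates exposed to compound for 48 hours at five concentrations. Definition used: TGI = concentration required for complete inhibition of growth.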

Take `NC1CC(=O)c2c1sc(Cl)c2Cl` (centres undefined): the TGI in the assay on SN12C renal, with UACC-257 melanoma, with SW-620 colon, with SK-MEL-28 melanoma, in the assay on HCT-15 colon and with MALME-3M melanoma was more than 100 µM each time. In addition, the TGI with SK-MEL-2 melanoma, with MOLT-4 leukemia, in the assay with HOP-62 NSCLC, in the assay on HCC-2998 colon and in the assay with SK-MEL-5 melanoma was more than 100 µM in each case.

For `[N-]=[N+]=NI1OC(=O)c2ccccc21`, the TGI is more than 100 µM in the assay on SN12C renal; more than 100 µM in the assay on UACC-257 melanoma; more than 100 µM in the assay with SW-620 colon; more than 100 µM in the assay on SK-MEL-28 melanoma; 40.6 µM in the assay with NCI-H522 lung; more than 100 µM with HCT-15 colon. For the same compound, the TGI with OVCAR-4 ovarian, in the assay with SK-MEL-2 melanoma, with MOLT-4 leukemia, in the assay on HOP-62 NSCLC and in the assay with HCC-2998 colon was more than 100 µM throughout.

Regarding `O=CNCNCCO`, the TGI with SW-620 colon, in the assay on SK-MEL-28 melanoma, in the assay with HCT-15 colon, in the assay on OVCAR-4 ovarian, in the assay on MALME-3M melanoma and with SK-MEL-2 melanoma was more than 100 µM in each case. The TGI with MOLT-4 leukemia, in the assay with HOP-62 NSCLC, in the assay on HCC-2998 colon and in the assay with SK-MEL-5 melanoma was more than 100 µM each time.

`Cc1cn(CCCCC2=NCCCN2)c(=O)[nH]c1=O`: the TGI is more than 100 µM with SN12C renal; more than 33.9 µM in the assay with UACC-257 melanoma; more than 37 µM with SW-620 colon; more than 32.9 µM in the assay with SK-MEL-28 melanoma; more than 46.3 µM in the assay on NCI-H522 lung; more than 47.2 µM with HCT-15 colon. The TGI in the assay with OVCAR-4 ovarian was more than 40.7 µM; in the assay with SK-MEL-2 melanoma, more than 35.9 µM; with MOLT-4 leukemia, more than 37.1 µM; with HOP-62 NSCLC, more than 60.7 µM; in the assay with HCC-2998 colon it was more than 32.9 µM; in the assay on SK-MEL-5 melanoma, more than 38.1 µM.

For `C[N+]12C=CC=C1C(N1CCCC1)c1scc(-c3ccccc3)c12` (centres undefined), the TGI is 70 µM with SN12C renal; more than 100 µM with SW-620 colon; more than 100 µM in the assay with SK-MEL-28 melanoma; 29.7 µM with NCI-H522 lung; 49.8 µM with MALME-3M melanoma; 42.3 µM in the assay with SK-MEL-2 melanoma. The values for the TGI with MOLT-4 leukemia, in the assay with HOP-62 NSCLC and in the assay with SK-MEL-5 melanoma were 64.6 µM, more than 100 µM and 27.6 µM, respectively.

Regarding `c1ccc2oc(-c3ccc(-c4nc5ccccc5o4)c4c3CC4)nc2c1`, the TGI in the assay with SN12C renal, in the assay with UACC-257 melanoma, in the assay on SW-620 colon, in the assay with SK-MEL-28 melanoma, with HCT-15 colon and in the assay on OVCAR-4 ovarian was more than 100 µM in each case. Also, the TGI in the assay with MALME-3M melanoma, with SK-MEL-2 melanoma, in the assay on MOLT-4 leukemia, in the assay with HOP-62 NSCLC, in the assay with HCC-2998 colon and in the assay on SK-MEL-5 melanoma was more than 100 µM throughout.

As to `COC(=O)C(CCSC)NC(=O)CNC(=O)CSc1nnc(COc2ccc(Cl)cc2)n1-c1ccccc1` (centres undefined), the TGI in the assay on SN12C renal was 32.4 µM; with UACC-257 melanoma it was 32.2 µM; with SW-620 colon it was 45.3 µM; in the assay with SK-MEL-28 melanoma, 33.3 µM; in the assay with HCT-15 colon it was 37.8 µM; with OVCAR-4 ovarian, 50.1 µM. The TGI was 32.7 µM in the assay on MALME-3M melanoma; 28.7 µM in the assay with SK-MEL-2 melanoma; more than 100 µM in the assay with MOLT-4 leukemia; 34.9 µM with HOP-62 NSCLC; 27 µM in the assay with HCC-2998 colon; 31.4 µM with SK-MEL-5 melanoma.

On to `CC1(C)CNCC(C)(OCc2ccccc2)C(=O)NC(C)(C)CNCC(C)(OCc2ccccc2)C(=O)N1` (centres undefined), for which the TGI in the assay with SN12C renal, in the assay with UACC-257 melanoma, with SW-620 colon, with SK-MEL-28 melanoma, with HCT-15 colon and with MALME-3M melanoma was more than 10 µM in each case. In addition, the TGI with SK-MEL-2 melanoma, with MOLT-4 leukemia, in the assay on HOP-62 NSCLC, in the assay on HCC-2998 colon and in the assay with SK-MEL-5 melanoma was more than 10 µM throughout.

With `COc1ccc(OC)c(N(CN2C(=O)CCC2C(=O)O)C(C)=O)c1` (centres undefined), the TGI in the assay on SN12C renal, in the assay with UACC-257 melanoma, with SW-620 colon, in the assay with SK-MEL-28 melanoma, with NCI-H522 lung and with HCT-15 colon was more than 100 µM throughout. In addition, the TGI in the assay on OVCAR-4 ovarian, in the assay with MALME-3M melanoma, in the assay with SK-MEL-2 melanoma, in the assay with MOLT-4 leukemia, with HOP-62 NSCLC and with SK-MEL-5 melanoma was more than 100 µM each time.

In the case of `COc1ccc(/C(Br)=C2\OC(=O)c3ccccc32)cc1`, the TGI with SN12C renal, with UACC-257 melanoma, in the assay with SW-620 colon, with SK-MEL-28 melanoma, in the assay on NCI-H522 lung and in the assay on HCT-15 colon was more than 10 µM throughout. Moreover, the TGI with OVCAR-4 ovarian, in the assay on SK-MEL-2 melanoma, in the assay with MOLT-4 leukemia, with HOP-62 NSCLC, with HCC-2998 colon and with SK-MEL-5 melanoma was more than 10 µM throughout.

As to `O=C(NC1CCN(Cc2ccccc2)CC1)c1ccc(I)cc1`, the TGI in the assay with SN12C renal, in the assay with UACC-257 melanoma, with SW-620 colon, with SK-MEL-28 melanoma, in the assay on NCI-H522 lung and with HCT-15 colon was more than 100 µM in each case. Besides, the TGI in the assay with OVCAR-4 ovarian, in the assay on SK-MEL-2 melanoma, in the assay on MOLT-4 leukemia, in the assay on HOP-62 NSCLC and with SK-MEL-5 melanoma was more than 100 µM in each case.

On to `COC(=O)/C=C(\CC(=O)OC)n1nnnc1[C@@H]1C[C@H](COC(c2ccccc2)(c2ccccc2)c2ccccc2)[C@H]2OC(C)(C)O[C@H]21`, for which the TGI with SN12C renal, with UACC-257 melanoma, with SW-620 colon, in the assay on SK-MEL-28 melanoma, with NCI-H522 lung and in the assay with OVCAR-4 ovarian was more than 100 µM in each case. Moreover, the TGI with MALME-3M melanoma, in the assay on SK-MEL-2 melanoma, in the assay on MOLT-4 leukemia, in the assay with HOP-62 NSCLC and with SK-MEL-5 melanoma was more than 100 µM each time.
